From patent US9221835B2, “Spirocyclic derivatives as antiparasitic agents” (Zoetis Services LLC, priority 2012, dated 2015)

Assays:
Format in all cases: in vivo
[1] = tested on: Soft Tick (Ornithidorus turicata); assay: Soft Tick (Ornithidorus turicata) Blood Feed Assay; details: nymph stage ticks fed on treated citrated bovine blood; paralysis and/or death observed at approximately 24, 48 and 72 hours
Method: Soft Tick (Ornithidorus turicata) Blood Feed Assay
Compounds of the present invention were dissolved in dimethylsulfoxide (DMSO) and aliquots added to citrated bovine blood in a membrane covered Petri dish. The Petri dish is placed on a warming tray. Approximately 5 nymph stage ticks are placed onto the membrane, covered, and left to feed. Fed ticks are removed and placed into a Petri dish with sand. […] Endpoint data was recorded as a 100% lethal dose (LD^100) in μg/mL.

[2] = tested on: Flea (Ctenocephalides felis); assay: Flea (Ctenocephalides felis) Membrane Feed Assay-Adult; details: adult fleas fed on treated citrated bovine blood for 24 hours, lowest dose to cause mortality ≧50%, half-log intervals, read-out: Minimum Effective Concentration (MEC)
Method: Flea (Ctenocephalides felis) Membrane Feed Assay-Adult
Compounds were dissolved in DMSO and aliquots were added to citrated bovine blood in membrane covered wells warmed to 37° C. Adult fleas were newly emerged (3-7 days) and unfed. Feeding wells containing approximately 10 adult fleas were placed onto the treated blood wells, and the fleas were allowed to feed on the treated blood for 24 hours. […] Each compound was tested at half-log intervals, and endpoint data was recorded as Minimum Effective Concentration in μM. MEC is a subjective visual assessment of organism viability, and is the lowest dose to cause mortality ≧50%.

[3] = tested on: Mosquito (Aedes aeqypti) larvae; assay: Mosquito (Aedes aeqypti) Larval Assay; details: first instar larvae, 25° C., 24 hours, lowest dose to inhibit motility ≧50% of untreated controls, half-log intervals, read-out: Minimum Effective Concentration (MEC)
Method: Mosquito (Aedes aeqypti) Larval Assay
Compounds were dissolved in DMSO and aliquots were spotted to empty wells. First instar mosquito larvae and maintenance media were added to the wells to obtain between 8 and 15 larvae per well in the appropriate final assay volume. Larvae were incubated in the treated media at 25° C. for 24 hours. Mosquito larvae motility was measured at 24 hours. Each compound was tested at half-log intervals, and endpoint results were recorded as Minimum Effective Concentration (MEC) in μM. MEC is an objective assessment of organism motility, and is the lowest dose to inhibit motility ≧50% of untreated controls.

With `CS(=O)(=O)CC(=O)N1CC2(C1)OCc1cc(C3=NCC(c4cc(Cl)c(Cl)c(Cl)c4)(C(F)(F)F)C3)ccc12` (stereo not drawn) [Example 1, 2-(methylsulfonyl)-1-(5′-(3-(3,4,5-trichlorophenyl)-3-(trifluoromethyl)-3,4-dihydro-2H-pyrrol-5-yl)-3′H-spiro[azetidine-3,1′-isobenzofuran]-1-yl)ethanone] the “100% lethal dose (LD100)” value [1] was 0.03 µg/mL, the minimal effective concentration [2] was 0.3 µM and the minimal effective concentration [3] was 0.1 µM.

For `CC(C)C(=O)N1CC2(C1)OCc1cc(C3=NCC(c4cc(Cl)cc(Cl)c4)(C(F)(F)F)C3)ccc12` (stereo not drawn) [Example 6, 5′-(3-(3,5-dichlorophenyl)-3-(trifluoromethyl)-3,4-dihydro-2H-pyrrol-5-yl]-1-isobutyryl-3′H-spiro[azetidine-3,1′-[2]benzofuran]], the “100% lethal dose (LD100)” value [1] was 0.03 µg/mL, the minimal effective concentration [2] was 1 µM and the minimal effective concentration [3] was 0.1 µM.

In the case of `CS(=O)(=O)CC(=O)N1CC2(C1)OCc1cc(C3=NNC(c4cc(Cl)c(F)c(Cl)c4)(C(F)(F)F)C3)ccc12` (stereo not drawn) [Example 13, 1-(5′-(5-(3,5-dichloro-4-fluorophenyl)-5-(trifluoromethyl)-4,5-dihydro-1H-pyrazol-3-yl)-3′H-spiro[azetidine-3,1′-isobenzofuran]-1-yl)-2-(methylsulfonyl)ethanone], the “100% lethal dose (LD100)” value [1] was 0.03 µg/mL, the minimal effective concentration [2] was at least 3 µM and the minimal effective concentration [3] was 0.1 µM.

In the case of `CS(=O)(=O)CC(=O)N1CC2(C1)OCc1cc(N3CCC(c4cc(Cl)c(F)c(Cl)c4)(C(F)(F)F)C3)ccc12` (stereo not drawn) [Example 22, 1-(5-(3-(3,5-dichloro-4-fluorophenyl)-3-(trifluoromethyl)pyrrolidin-1-yl)-3′H-spiro[azetidine-3,1′-isobenzofuran]-1-yl)-2-(methylsulfonyl)ethanone], the “100% lethal dose (LD100)” value [1] was 0.03 µg/mL, the minimal effective concentration [2] was at least 3 µM and the minimal effective concentration [3] was over 3 µM.

With `CS(=O)(=O)CC(=O)N1CC2(C1)OCc1cc(N3CCC(c4cc(Cl)c(Cl)c(Cl)c4)(C(F)(F)F)C3)ccc12` (stereo not drawn) [Example 26, 5′-[3-(3,4,5-trichloro)-3-(trifluoromethyl)pyrrolidin-1-yl]-1-[(methylsulfonyl)acetyl]-3′H-spiro[azetidine-3,1′-[2]benzofuran]] the “100% lethal dose (LD100)” value [1] was 0.1 µg/mL, the minimal effective concentration [2] was at least 3 µM and the minimal effective concentration [3] was over 3 µM.

`CC(C)C(=O)N1CC2(C1)OCc1cc(C3=NOC(c4cc(Cl)c(F)c(Cl)c4)(C(F)(F)F)O3)ccc12` (stereo not drawn) [Example 28, 1-(5′-(5-(3,5-dichloro-4-fluorophenyl)-5-(trifluoromethyl)-1,4,2-dioxazol-3-yl)-3′H-spiro[azetidine-3,1′-isobenzofuran]-1-yl)-2-methyl propan-1-one] was tested, and the “100% lethal dose (LD100)” value [1] was 0.1 µg/mL, the minimal effective concentration [2] was at least 3 µM and the minimal effective concentration [3] was 0.3 µM.

For `CC(C)C(=O)N1CC2(C1)OCc1cc(C3=NOC(c4cc(Cl)c(Cl)c(Cl)c4)(C(F)(F)F)O3)ccc12` (stereo not drawn) [Example 31], the “100% lethal dose (LD100)” value [1] was 0.3 µg/mL, the minimal effective concentration [2] was at least 3 µM and the minimal effective concentration [3] was 0.3 µM.
